Like-named read-outs stand apart in the source and are kept apart here. Positions of bridges follow the written chain, without caps; N, C: chain ends. Non-standard residues stand in square brackets, D forms with d. Residues, ends and D or L forms follow the SMILES beside them. Phe(4-CH2NH2) = NCc1ccc(C[C@H](N)C(=O)O)cc1; Bip = N[C@@H](Cc1ccc(-c2ccccc2)cc1)C(=O)O; Phe(3-Cl) = N[C@@H](Cc1cccc(Cl)c1)C(=O)O; Phe(3-OMe) = COc1cccc(C[C@H](N)C(=O)O)c1; Bta = N[C@@H](Cc1csc2ccccc12)C(=O)O; Hyp = O=C(O)[C@@H]1C[C@@H](O)CN1; NMeF = CN[C@@H](Cc1ccccc1)C(=O)O; 4Pal = N[C@@H](Cc1ccncc1)C(=O)O; NMeNle = CCCC[C@H](NC)C(=O)O; NMeA = CN[C@@H](C)C(=O)O; Orn = NCCC[C@H](N)C(=O)O; Dab = NCC[C@H](N)C(=O)O; Dap = NC[C@H](N)C(=O)O; Sar = CNCC(=O)O
How the values were obtained:
[1] = molecular target: T1, LK35.2-hPD-L1 cells / PE-labeled PD-1-Ig (Homo sapiens, UniProt Q9NZQ7); test: LK35.2-hPD-L1 cell binding high-content screening assay; assay type: cell-based; conditions: cluster symbol, read-out: CBA IC50 cluster
T1 construct: expressed in transfected cells; host or cells: LK35.2 mouse B cell line
Procedure: LK35.2-hPD-L1 Cell Binding High-Content Screening Assay. Phycoerythrin (PE) was covalently linked to the Ig epitope tag of human PD-1-Ig and fluorescently-labeled PD-1-Ig was used for binding studies with a mouse B cell line (LK35.2) stably over-expressing human PD-L1 (LK35.2-hPD-L1). Briefly, 3×10^3 LK35.2-hPD-L1 cells were seeded into 384 well plates in 20 ul of RPMI supplemented with 10% fetal calf serum and cultured overnight. 125 nl of compound was added to cells, followed by 5 ul of PE-labeled PD-1-Ig (1 nM final), diluted in RPMI supplemented with 10% fetal calf serum, followed by incubation at 37° C. for 1 h. […] Cells were washed 3× in 100 ul of dPBS followed by final addition of 15 ul of dPBS. Data was collected and processed using a Cell Insight NXT High Content Imager and associated software.

Human PD-L1/PD-1 = molecular target: T2, Human PD-L1/PD-1 (Homo sapiens, UniProt Q9NZQ7); test: HTRF PD-1-Ig/PD-L1-His binding assay (human PD-L1); conditions: cluster symbol; read-out: HTRF IC50 cluster
T2 construct: made in house; host or cells: HEK293T
How it was run: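 Ig- and His-fused extracellular PD-1/PD-L1 binding in BSA/Tween-20 dPBS. HTRF with Eu anti-Ig (1 nM final) and APC anti-His (20 nM final).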

[2] = cell line of CBA not given (LK35.2-hPD-L1 or 293T-hPD-L1)
[3] = cell binding assay, cell line not given

T2 sequence (Q9NZQ7 with tags, fused parts or gaps): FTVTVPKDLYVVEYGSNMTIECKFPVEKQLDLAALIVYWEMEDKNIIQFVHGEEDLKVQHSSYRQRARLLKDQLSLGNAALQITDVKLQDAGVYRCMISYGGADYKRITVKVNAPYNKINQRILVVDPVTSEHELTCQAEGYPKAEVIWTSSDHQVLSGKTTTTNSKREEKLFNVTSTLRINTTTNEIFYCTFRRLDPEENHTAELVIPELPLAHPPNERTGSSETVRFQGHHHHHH
T1 sequence (Q9NZQ7 19-290): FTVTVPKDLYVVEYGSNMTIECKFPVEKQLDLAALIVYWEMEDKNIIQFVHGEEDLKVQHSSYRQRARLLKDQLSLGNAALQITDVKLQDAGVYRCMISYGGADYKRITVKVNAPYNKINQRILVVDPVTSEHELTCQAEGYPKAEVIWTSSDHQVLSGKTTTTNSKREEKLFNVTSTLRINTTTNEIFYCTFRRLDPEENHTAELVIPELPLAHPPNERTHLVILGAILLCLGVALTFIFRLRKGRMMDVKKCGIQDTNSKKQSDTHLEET

SMILES	IC50 [1, 2] [nM]	IC50 (Human PD-L1/PD-1) [nM]	IC50 [1, 3] [nM]
CCCC[C@H]1C(=O)N(C)CC(=O)N[C@@H](CC(=O)O)C(=O)N[C@@H](C(C)C)C(=O)N(C)[C@@H](Cc2ccccc2)C(=O)N[C@@H](Cc2ccc(O)cc2)C(=O)N(C)CC(=O)N[C@@H](Cc2c[nH]c3ccccc23)C(=O)N[C@@H](Cc2ccc(O)cc2)C(=O)N[C@@H](CC(C)C)C(=O)N[C@H](C(=O)NCC(N)=O)CSCC(=O)N[C@@H](Cc2cccc(OC)c2)C(=O)N(C)[C@@H](Cc2ccccc2)C(=O)N1C [Example 3095] ({CH2CO}-[Phe(3-OMe)][NMeF][NMeNle][Sar]DV[NMeF]Y[Sar]WYLCG-NH2; thioether N-13)	4.78 to 72.9	6.76 to 30.3	–
CCCC[C@H]1C(=O)N(C)CC(=O)N[C@@H](CC(=O)O)C(=O)N[C@@H](C(C)C)C(=O)N(C)[C@@H](Cc2ccccc2)C(=O)N[C@@H](Cc2ccc(O)cc2)C(=O)N(C)CC(=O)N[C@@H](Cc2c[nH]c3ccccc23)C(=O)N[C@@H](Cc2ccc(-c3ccccc3)cc2)C(=O)N[C@@H](CC(C)C)C(=O)N[C@H](C(=O)NCC(N)=O)CSCC(=O)N[C@@H](Cc2ccccc2)C(=O)N(C)[C@@H](Cc2ccccc2)C(=O)N1C [Example 3547] ({CH2CO}-F[NMeF][NMeNle][Sar]DV[NMeF]Y[Sar]W[Bip]LCG-NH2; thioether N-13)	–	> 30.5	> 74.3
CCCC[C@H]1C(=O)N[C@@H](CCCNC(=N)N)C(=O)NC(C(=O)NCC(N)=O)CSCC(=O)N[C@@H](Cc2ccc(O)cc2)C(=O)N(C)[C@@H](C)C(=O)N[C@@H](CC(N)=O)C(=O)N2CCC[C@H]2C(=O)N[C@@H](Cc2cnc[nH]2)C(=O)N[C@@H](CC(C)C)C(=O)N2C[C@H](O)C[C@H]2C(=O)N[C@@H](Cc2c[nH]c3ccccc23)C(=O)N[C@@H](CO)C(=O)N[C@@H](Cc2c[nH]c3ccccc23)C(=O)N(C)[C@@H](COCC)C(=O)N1C (some centres unmarked) [Example 9046]	–	0.385 to 6.74	0.158 to 4.71
CCCC[C@H]1C(=O)N(C)CC(=O)N[C@@H](CC(N)=O)C(=O)N[C@@H](C(C)C)C(=O)N(C)[C@@H](Cc2ccccc2)C(=O)N[C@@H](Cc2ccc(O)cc2)C(=O)N(C)CC(=O)N[C@@H](Cc2c[nH]c3ccccc23)C(=O)N[C@@H](Cc2ccc(O)cc2)C(=O)N[C@@H](CCCN)C(=O)N[C@H](C(=O)NCC(N)=O)CSCC(=O)N[C@@H](Cc2ccccc2)C(=O)N[C@@H](Cc2ccncc2)C(=O)N1C [Example 3610] ({CH2CO}-F[4Pal][NMeNle][Sar]NV[NMeF]Y[Sar]WY[Orn]CG-NH2; thioether N-13)	–	6.76 to 30.3	4.78 to 72.9
CCCC[C@H]1C(=O)N(C)CC(=O)N[C@@H](CC(=O)O)C(=O)N[C@@H](C(C)C)C(=O)N(C)[C@@H](Cc2ccccc2)C(=O)N[C@@H](Cc2ccc(CN)cc2)C(=O)N(C)CC(=O)N[C@@H](Cc2csc3ccccc23)C(=O)N[C@@H](Cc2ccc(O)cc2)C(=O)N[C@@H](CC(C)C)C(=O)N[C@H](C(=O)NCC(N)=O)CSCC(=O)N[C@@H](Cc2cccc(Cl)c2)C(=O)N(C)[C@@H](Cc2ccccc2)C(=O)N1C [Example 3118] ({CH2CO}-[Phe(3-Cl)][NMeF][NMeNle][Sar]DV[NMeF][Phe(4-CH2NH2)][Sar][Bta]YLCG-NH2; thioether N-13)	4.78 to 72.9	6.76 to 30.3	–
CCCC[C@H]1C(=O)N(C)[C@@H](CCCC)C(=O)N[C@@H](Cc2ccncc2)C(=O)N[C@H](C(=O)NCC(N)=O)CSCC(=O)N[C@@H](Cc2ccc(O)cc2)C(=O)N(C)[C@@H](C)C(=O)N[C@@H](CC(N)=O)C(=O)N2CCC[C@H]2C(=O)N[C@@H](Cc2cnc[nH]2)C(=O)N[C@@H](CC(C)C)C(=O)N2C[C@H](O)C[C@H]2C(=O)N[C@@H](Cc2c[nH]c3ccccc23)C(=O)N[C@@H](CO)C(=O)N[C@@H](Cc2c[nH]c3ccccc23)C(=O)N1C [Example 7031]	–	0.385 to 6.74	4.78 to 72.9
CCCC[C@H]1C(=O)N(C)[C@@H](CCCC)C(=O)N[C@@H](CN)C(=O)N[C@H](C(=O)NCC(N)=O)CSCC(=O)N[C@@H](Cc2ccc(O)cc2)C(=O)N(C)[C@@H](C)C(=O)N[C@@H](CC(N)=O)C(=O)N2CCC[C@H]2C(=O)N[C@@H](CN)C(=O)N[C@@H](CC(C)C)C(=O)N2C[C@H](O)C[C@H]2C(=O)N[C@@H](Cc2c[nH]c3ccccc23)C(=O)N[C@@H](CCN)C(=O)N[C@@H](Cc2csc3ccccc23)C(=O)N1C [Example 1180] ({CH2CO}-Y[NMeA]NP[Dap]L[Hyp]W[Dab][Bta][NMeNle][NMeNle][Dap]CG-NH2; thioether N-14)	0.158 to 4.71	0.385 to 6.74	–

From patent US9850283B2, “Macrocyclic inhibitors of the PD-1/PD-L1 and CD80(B7-1)/PD-L1 protein/protein interactions” (BRISTOL-MYERS SQUIBB COMPANY, priority 2013, dated 2017)
